Columns and labels:
Assay type in all cases: in vivo
[1] = test system: barnyardgrass (Echinochloa crus-galli); test: Test A preemergence soil spray, visual injury rating 0-100; conditions: 10 days
How it was run: (§1)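 Plants in a loam and sand soil blend were treated with each test chemical, in a non-phytotoxic solvent system including surfactant, either sprayed on seeded soil before emergence or applied after emergence at the one- to two-leaf stage. Ten days later in the greenhouse, plants were compared with untreated controls and visually rated from 0 (no effect) to 100 (complete control).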

[2] = test system: blackgrass (Alopecurus myosuroides); test: as above; conditions: 10 days
How it was run: as §1

corn (Zea mays) [3] = test: as above; conditions: 10 days
How it was run: as §1

[4] = test system: green foxtail (Setaria viridis); test: as above; conditions: 10 days
How it was run: as §1

kochia (Bassia scoparia) [5] = test: as above; conditions: 10 days
How it was run: as §1

[6] = test system: oat, wild (wild oat, Avena fatua); test: as above; conditions: 10 days
How it was run: as §1

[7] = test system: palmer (palmer amaranth, palmer pigweed, Amaranthus palmeri); test: as above; conditions: 10 days
How it was run: as §1

[8] = test system: ragweed (common ragweed, Ambrosia artemisiifolia); test: as above; conditions: 10 days
How it was run: as §1

[9] = test system: ryegrass, Italian (italian ryegrass, Lolium multiflorum); test: as above; conditions: 10 days
How it was run: as §1

soybean (Glycine max) [10] = test: as above; conditions: 10 days
How it was run: as §1

[11] = test system: wheat (Triticum aestivum); test: as above; conditions: 10 days
How it was run: as §1

[12] = test system: barnyardgrass (Echinochloa crus-galli); test: Test A postemergence application, visual injury rating 0-100
How it was run: as §1

[13] = test system: blackgrass (Alopecurus myosuroides); test: as above
How it was run: as §1

corn (Zea mays) [14] = test: as above
How it was run: as §1

[15] = test system: galium (catchweed bedstraw, Galium aparine); test: as above
How it was run: as §1

[16] = test system: green foxtail (Setaria viridis); test: as above
How it was run: as §1

[17] = test system: horseweed (Erigeron canadensis); test: as above
How it was run: as §1

kochia (Bassia scoparia) [18] = test: as above
How it was run: as §1

[19] = test system: oat, wild (wild oat, Avena fatua); test: as above
How it was run: as §1

[20] = test system: palmer (palmer amaranth, palmer pigweed, Amaranthus palmeri); test: as above
How it was run: as §1

[21] = test system: ragweed (common ragweed, Ambrosia artemisiifolia); test: as above
How it was run: as §1

[22] = test system: ryegrass, Italian (italian ryegrass, Lolium multiflorum); test: as above
How it was run: as §1

soybean (Glycine max) [23] = test: as above
How it was run: as §1

[24] = test system: wheat (Triticum aestivum); test: as above
How it was run: as §1

[25] = test system: barnyardgrass (Echinochloa crusgalli); test: Test B flooded paddy test, visual plant response rating 0-100; conditions: 250 g ai/ha, Flood, applied to paddy water, evaluated after 13 days
How it was run: (§2)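 Compounds applied to standing paddy water (3 cm above soil, maintained for the test duration) on 2-leaf-stage plants; visual rating vs controls at 13 days, greenhouse.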

[26] = test system: ducksalad (Heteranthera limosa); test: as above; conditions: 250 g ai/ha, Flood, applied to paddy water, evaluated after 13 days
How it was run: as §2

rice (Oryza sativa) = test: as above; conditions: 250 g ai/ha, Flood, applied to paddy water, evaluated after 13 days
How it was run: as §2

[27] = test system: sedge, umbrella (small-flower umbrella sedge, Cyperus difformis); test: as above; conditions: 250 g ai/ha, Flood, applied to paddy water, evaluated after 13 days
How it was run: as §2

[28] = 62 g ai/ha, 0 = no effect, 100 = complete control
[29] = 62 g ai/ha, postemergence, 10 days, 0 = no effect, 100 = complete control
[30] = Postemergence, 16 g ai/ha, greenhouse 10 days, 0 no effect, 100 complete control

With `COC(=O)C1C=CC(NC(=O)C2(C)CN(c3cc(F)cc(F)c3)C(=O)O2)C1` (stereo not shown) [Compound 92] the “Barnyardgrass plant response rating” value ([1]; 16 g ai/ha, 0 to 100 scale) was 0, the “Barnyardgrass plant response rating (0-100)” value [1, 28] was 0 and the “Blackgrass plant response rating” value ([2]; 16 g ai/ha, 0 to 100 scale) was 0. The “Blackgrass plant response rating (0-100)” value [2, 28] was 0, the “Corn plant response rating” value (corn (Zea mays) [3]; 16 g ai/ha, 0 to 100 scale) was 0 and the “Corn plant response rating (0-100)” value (corn (Zea mays) [3]; [28]) was 0. For the same molecule, the “Foxtail, Green plant response rating” value ([4]; 16 g ai/ha, 0 to 100 scale) was 0, the “Foxtail, Green plant response rating (0-100)” value [4, 28] was 0 and the “Kochia plant response rating” value (kochia (Bassia scoparia) [5]; 16 g ai/ha, 0 to 100 scale) was 0. The “Kochia plant response rating (0-100)” value (kochia (Bassia scoparia) [5]; [28]) was 0, the “Oat, Wild plant response rating” value ([6]; 16 g ai/ha, 0 to 100 scale) was 0 and the “Oat, Wild plant response rating (0-100)” value [6, 28] was 0. The “Pigweed, Palmer plant response rating” value ([7]; 16 g ai/ha, 0 to 100 scale) was 0, the “Pigweed, Palmer plant response rating (0-100)” value [7, 28] was 70 and the “Ragweed plant response rating” value ([8]; 16 g ai/ha, 0 to 100 scale) was 0. For the same molecule, the “Ragweed plant response rating (0-100)” value [8, 28] was 0, the “Ryegrass, Italian plant response rating” value ([9]; 16 g ai/ha, 0 to 100 scale) was 0 and the “Ryegrass, Italian plant response rating (0-100)” value [9, 28] was 0. The “Soybean plant response rating” value (soybean (Glycine max) [10]; 16 g ai/ha, 0 to 100 scale) was 0, the “Soybean plant response rating (0-100)” value (soybean (Glycine max) [10]; [28]) was 0 and the “Wheat plant response rating” value ([11]; 16 g ai/ha, 0 to 100 scale) was 0. The “Wheat plant response rating (0-100)” value [11, 28] was 0, the “Barnyardgrass plant response rating (0-100)” value [12, 29] was 0 and the “Barnyardgrass plant response rating (0 to 100 scale)” value [12, 30] was 0. For the same molecule, the “Blackgrass plant response rating (0-100)” value [13, 29] was 0, the “Blackgrass plant response rating (0 to 100 scale)” value [13, 30] was 0 and the “Corn plant response rating (0-100)” value (corn (Zea mays) [14]; [29]) was 0. The “Corn plant response rating (0 to 100 scale)” value (corn (Zea mays) [14]; [30]) was 0, the “Galium plant response rating (0-100)” value [15, 29] was 0 and the “Galium plant response rating (0 to 100 scale)” value [15, 30] was 0. The “Foxtail, Green plant response rating (0-100)” value [16, 29] was 0, the “Foxtail, Green plant response rating (0 to 100 scale)” value [16, 30] was 0 and the “Horseweed plant response rating (0-100)” value [17, 29] was 0. The “Horseweed plant response rating (0 to 100 scale)” value [17, 30] was 0, the “Kochia plant response rating (0-100)” value (kochia (Bassia scoparia) [18]; [29]) was 0 and the “Kochia plant response rating (0 to 100 scale)” value (kochia (Bassia scoparia) [18]; [30]) was 0. For the same molecule, the “Oat, Wild plant response rating (0-100)” value [19, 29] was 0, the “Oat, Wild plant response rating (0 to 100 scale)” value [19, 30] was 0 and the “Pigweed, Palmer plant response rating (0-100)” value [20, 29] was 0. For the same molecule, the “Pigweed, Palmer plant response rating (0 to 100 scale)” value [20, 30] was 0, the “Ragweed plant response rating (0-100)” value [21, 29] was 20 and the “Ragweed plant response rating (0 to 100 scale)” value [21, 30] was 0. For the same molecule, the “Ryegrass, Italian plant response rating (0-100)” value [22, 29] was 0, the “Ryegrass, Italian plant response rating (0 to 100 scale)” value [22, 30] was 0 and the “Soybean plant response rating (0-100)” value (soybean (Glycine max) [23]; [29]) was 0. The “Soybean plant response rating (0 to 100 scale)” value (soybean (Glycine max) [23]; [30]) was 0, the “Wheat plant response rating (0-100)” value [24, 29] was 0 and the “Wheat plant response rating (0 to 100 scale)” value [24, 30] was 0. For the same molecule, the “Plant response rating, Barnyardgrass (0 to 100 scale, 0 is no effect and 100 is complete control)” value [25] was 0, the “Plant response rating, Ducksalad (0 to 100 scale, 0 is no effect and 100 is complete control)” value [26] was 0 and the “Plant response rating, Rice (0 to 100 scale, 0 is no effect and 100 is complete control)” value (rice (Oryza sativa)) was 0. The “Plant response rating, Sedge, Umbrella (0 to 100 scale, 0 is no effect and 100 is complete control)” value [27] was 0.

— patent US20260285850A1, “SUBSTITUTED OXAZOLIDINONES AND IMIDAZOLINONES AS HERBICIDES” (FMC CORPORATION, priority 2023, published 2026)
